From patent US20150174202A1, “Methods and Compositions for Modulating Beta Cell Proliferation” (The Board of Trustees of the Leland Stanford Junior …, priority 2011, published 2015)

Key:
EZH2 = assay: EZH2/EZH1 mRNA in cultured human islets (real-time RT-PCR); assay type: cell-based; conditions: PDGF-AA 50 ng/ml, 2 days
Protocol: Total RNA from freshly isolated or cultured islets after indicated treatments were purified using the Absolutely RNA miniprep purification kit (Stratagene) according to the manufacturer's instructions. RNA concentration was measured with a RiboGreen RNA quantification assay (Invitrogen). One-step quantitative RT-PCR was performed and analysed using an ABI Prism 7300 detection system (Applied Biosystems) with TaqMan one-step RTPCR Master Mix Reagents and appropriate amounts (10-100 ng) of islet total RNA as the template. We calculated the ratio of mRNA for the gene of interest to the amount of internal control mRNA of peptidylprolyl isomerase A (cyclophilin A, PPIA), and then normalized the ratio for each gene to its median. For islet studies, human islets were isolated either at Pittsburgh University Medical Center or the University of Alabama, Birmingham. Eight independent human islet preparations from juvenile donors at the age of 8 months, 1.0, 1.5, 2, 3, 4, 5 and 6 years, and three adult islet preparations from donors at the age of 39, 48 and 56 years were used in this study. After isolation, fresh islets were hand-picked and transferred to RPMI-1640 medium supplemented with 0.5% FBS, 0.2% BSA and 2% penicillin/streptomycin for an overnight recovery before experiments. […] To detect in vitro human islet β-cell proliferation stimulated by PDGF-AA, human islets were exposed to 50 μM BrdU for 24 h. Afterwards, human islets were processed in a similar way as in mouse islet studies for immunostaining of insulin, glucagon, PDX1 and BrdU. β-Cell proliferation rate was determined by quantifying percentage of insulin+ cells with BrdU+. More than 50 islets per group were counted for determining cultured human islet β-cell proliferation rate.

[1] = test system: INSULIN+ cells in human islet grafts; assay: Human β-cell replication in islets transplanted into NOD-scid mice with PDGF-AA infusion; assay type: in vivo
Text: Exposure of islets from young human donors to purified PDGF-AA stimulates ERK-dependent signaling pathways culminating in enhanced β-cell proliferation. However, these studies have not yet shown if PDGF-AA activation is sufficient to drive regeneration of functional β-cell mass in vivo. To assess this question, equivalent numbers of size-matched islets from young (ages 1-10 years) and control adult donors (age >20 years) were transplanted into NOD-scid mice. […] PDGF-AA infusion stimulated β-cell expansion in human islet grafts. A 200% increase of INSULIN^+ cell BrdU incorporation in grafts from young human donors (n=3 independent juvenile donors, three week PDGF-AA infusion; FIG. 26B-C). By contrast, we observed no increase of BrdU incorporation by INSULIN^+ cells in adult islet grafts (n=2), as expected based on our prior observation that adult β-cells no longer express Pdgf receptor α or Pdgf receptor β. Promoting the expression of Pdgf receptor on adult islet β-cells, e.g. by promoting Wnt signaling and/or preventing DNA methylatransferase activity, will render these adult islet β-cells sensitive to PGF-AA infusion.

[2] = grafts from young human donors, three week PDGF-AA infusion

PDGF-AA: recombinant human PDGF-AA, a homodimer of PDGF alpha polypeptides
EZH2 mRNA levels (EZH2; adult human islets): not induced | EZH2 mRNA levels (EZH2; juvenile human islets): increased | BrdU incorporation by INSULIN+ cells ([1]; adult human islet grafts, PDGF-AA infusion): no increase | INSULIN+ cell BrdU incorporation (in words) [1, 2]: Increase | increase of INSULIN+ cell BrdU incorporation [1, 2]: 200%
